Reference: ChEMBL document CHEMBL6121004, “Design, synthesis, and biological evaluation of Ponatinib-based N-Phenylpyrimidine-2-amine derivatives as novel fibroblast growth factor receptor 4 (FGFR4) selective inhibitors” (Eur J Med Chem, 2025)
Calls of active or inactive are those of the source. No cut-off for these calls is given here.

How the values were obtained:
[1] = tested on: Hep3B; assay: Inhibition of MAPK phosphorylation in human Hep3B cells at 0.4 uM incubated for 48 hrs by Western blot analysis; type: cell-based
[2] = tested on: Huh-7; assay: Induction of apoptosis in human Huh-7 cells assessed as viable cells at 1 uM incubated for 48 hrs by annexin V-FITC/propidium iodide staining based flow cytometry analysis (reference value: 84.91%); type: functional; conditions: read-out: Activity
[3] = tested on: Huh-7; assay: Induction of apoptosis in human Huh-7 cells assessed as necrotic cells at 0.5 uM incubated for 48 hrs by annexin V-FITC/propidium iodide staining based flow cytometry analysis (reference value: 5.20%); type: functional
[4] = tested on: Huh-7; assay: Antitumor activity against human Huh-7 cells xenografted in nude mouse assessed as tumor growth inhibition at 25 mg/kg, ip administered for 15 days; type: functional; conditions: Huh-7, 360 h, time 15 day, read-out: TGI
[5] = Toxicity in male nude mouse implanted with human Huh-7 cells assessed as kidney damage at 12.5 to 50 mg/kg, ip administered for 15 days; type: organism-based; conditions: in vivo, 360 h, dose 12.5-50 mg/kg, time 15 day
[6] = tested on: Hep 3B2; assay: Induction of apoptosis in human Hep3B cells assessed as early apoptotic cells at 0.25 uM incubated for 48 hrs by annexin V-FITC/propidium iodide staining based flow cytometry analysis (reference value: 4.69%); type: functional
[7] = tested on: Hep3B; assay: Inhibition of MAPK phosphorylation in human Hep3B cells incubated for 48 hrs by Western blot analysis; type: cell-based; conditions: dose 0.25-1 µM
[8] = tested on: Hep 3B2; assay: Induction of apoptosis in human Hep3B cells assessed as necrotic cells at 1 uM incubated for 48 hrs by annexin V-FITC/propidium iodide staining based flow cytometry analysis (reference value: 5.20%); type: functional
[9] = tested on: Huh-7; assay: cells; conditions: Homo sapiens, Huh-7, 72 h
Description: Antiproliferative activity against human Huh-7 cells assessed as inhibition of cell proliferation incubated for 72 hrs by MTT assay

[10] = tested on: Huh-7; assay: Induction of apoptosis in human Huh-7 cells assessed as viable cells at 0.1 uM incubated for 48 hrs by annexin V-FITC/propidium iodide staining based flow cytometry analysis (reference value: 84.91%); type: functional; conditions: read-out: Activity
[11] = Toxicity in male nude mouse implanted with human Huh-7 cells assessed as lung damage at 12.5 to 50 mg/kg, ip administered for 15 days; type: organism-based; conditions: in vivo, 360 h, dose 12.5-50 mg/kg, time 15 day
[12] = tested on: Huh-7; assay: Induction of apoptosis in human Huh-7 cells assessed as viable cells at 0.5 uM incubated for 48 hrs by annexin V-FITC/propidium iodide staining based flow cytometry analysis (reference value: 84.91%); type: functional; conditions: read-out: Activity
[13] = tested on: Hep 3B2; assay: Induction of apoptosis in human Hep3B cells assessed as viable cells at 0.5 uM incubated for 48 hrs by annexin V-FITC/propidium iodide staining based flow cytometry analysis (reference value: 84.91%); type: functional; conditions: read-out: Activity
[14] = tested on: Huh-7; assay: Induction of apoptosis in human Huh-7 cells assessed as late apoptotic cells at 0.1 uM incubated for 48 hrs by annexin V-FITC/propidium iodide staining based flow cytometry analysis (reference value: 5.20%); type: functional
[15] = tested on: Huh-7; assay: Antitumor activity against human Huh-7 cells xenografted in nude mouse assessed as tumor growth inhibition at 12.5 mg/kg, ip administered for 15 days; type: functional; conditions: Huh-7, 360 h, time 15 day, read-out: TGI
[16] = MRT (0 to t) in BALB/c male mouse at 1 mg/kg, iv measured upto 24 hrs by LC-MS/MS analysis; type: ADME, organism-based; conditions: in vivo
[17] = Tmax in BALB/c male mouse at 10 mg/kg, po measured upto 24 hrs by LC-MS/MS analysis; type: ADME, organism-based; conditions: in vivo
[18] = Toxicity in male nude mouse implanted with human Huh-7 cells assessed as heart damage at 12.5 to 50 mg/kg, ip administered for 15 days; type: organism-based; conditions: in vivo, 360 h, dose 12.5-50 mg/kg, time 15 day
[19] = Half life in BALB/c male mouse at 1 mg/kg, iv measured upto 24 hrs by LC-MS/MS analysis; type: ADME, organism-based; conditions: in vivo
[20] = tested on: Huh-7; assay: Induction of apoptosis in human Huh-7 cells assessed as necrotic cells at 1 uM incubated for 48 hrs by annexin V-FITC/propidium iodide staining based flow cytometry analysis (reference value: 5.20%); type: functional
[21] = Toxicity in male nude mouse implanted with human Huh-7 cells assessed as spleen damage at 12.5 to 50 mg/kg, ip administered for 15 days; type: organism-based; conditions: in vivo, 360 h, dose 12.5-50 mg/kg, time 15 day

## C=CC(=O)Nc1cccc(C)c1Nc1ncc(C#Cc2cccc(C(=O)Nc3ccc(CN4CCN(C)CC4)c(C(F)(F)F)c3)c2)cn1
[1]
  inhibition: Active
[2]
  viability at 1 µM: 63%
[3]
  Activity: 8.41%
[4]
  inhibition in vivo at 25 mg/kg: 50.3%
[5]
  Activity: Non-toxic
[6]
  Activity: 4.38%
[7]
  inhibition: Dose-dependent-effect
[8]
  Activity: 5.13%
[9]
  IC50: 150 nM
[10]
  viability at 0.1 µM: 88.8%
[11]
  Activity: Non-toxic
[12]
  viability at 0.5 µM: 75.3%
[13]
  viability at 0.5 µM: 68.9%
[14]
  Activity: 5.12%
[15]
  inhibition in vivo at 12.5 mg/kg: 34.9%
[16]
  MRT last at 24 h: 46.2 min
[17]
  Tmax: 60 min
[18]
  Activity: Non-toxic
[19]
  half-life: 47.4 min
[20]
  Activity: 9.67%
[21]
  Activity: Non-toxic
